Experimental data published in patent US20230348376A1 (TEIJIN PHARMA LIMITED, priority 2020, published 2023).

Key:
[1] = Evaluation of brain penetration in mice (blood and brain concentration at brain Cmax); type: in vivo, mouse; conditions: 1 mg/kg single oral dose, C57BL/6J mice; for Concentration in blood (mean ± SD) at brain Cmax / Concentration in brain (mean ± SD) at brain Cmax: n=3; for Kp: male, C57BL/6J, mouse, brain/plasma, po, 1 mg/kg, read-out: Concentration in brain/in blood ratio at brain Cmax
Method: The administration solution was administered orally to C57BL/6J mice (8 weeks old, male, n=3) at a single dose (1 mg/kg). Mice were euthanized at 6 points of 0.25, 0.5, 1, 2, 4, and 8 hours after administration, and plasma and brain sampling were performed. After preparing a homogenate from the collected brain using Tissue Lyser II (QIAGEN #85300), acetonitrile was added to the homogenate and the homogenate was centrifuged (12000 rpm, 5 minutes) to extract the administered test compound contained in the brain. Similarly, the plasma was subjected to addition of acetonitrile and centrifugal separation to extract the administered test compound contained in the plasma. Each extracted sample was subjected to measurement of the concentration of administered test compound using LC/MS/MS (SHIMADZU UFLC/MS/MS (8050)).
Test 2 [0.2 mg/kg Administration Study] […] The administration solution was administered orally to C57BL/6J mice (8 weeks old, male, n=3) at a single dose (0.2 mg/kg). Mice were euthanized at 6 points of 0.25, 0.5, 1, 2, 4, and 8 hours after administration, and plasma and brain sampling were performed. After preparing a homogenate from the collected brain using Tissue Lyser II (QIAGEN #85300), acetonitrile was added to the homogenate and the homogenate was centrifuged (12000 rpm, 5 minutes) to extract the administered compound contained in the brain. Similarly, the plasma was subjected to addition of acetonitrile and centrifugal separation to extract the administered test compound contained in the plasma. Each extracted sample was subjected to measurement of the concentration of administered test compound using LC/MS/MS (SHIMADZU UFLC/MS/MS (8050)).

[2] = test system: rat oligodendrocyte progenitor cells; experiment: Promotive activity of rat oligodendrocyte progenitor cell differentiation-2 (immunostaining of MBP); type: cell-based; conditions: vitamin D derivative 2 μM, T3 30 nM, 4 days
Method: The promotive activity of oligodendrocyte progenitor cell (OPC) differentiation of the vitamin D derivatives was evaluated by immunostaining of MBP.
Subsequently, oligodendrocyte progenitor cell separation medium was added to the flask, and the mixture was similarly shaken for about 22 hours (37° C., 200 rpm), and the supernatant was collected to prepare oligodendrocyte progenitor cells.

[3] = molecular target: T1, human VDR (Homo sapiens, UniProt P11473); experiment: Evaluation of VDR transcription activity in human osteoblasts (HOS cells), luciferase reporter; conditions: Activity (EC50, VDR transcription activity), HOS cells transfected with human VDR, human RXRα and DR3 luciferase reporter; 21 hours
T1 sequence (P11473 1-427): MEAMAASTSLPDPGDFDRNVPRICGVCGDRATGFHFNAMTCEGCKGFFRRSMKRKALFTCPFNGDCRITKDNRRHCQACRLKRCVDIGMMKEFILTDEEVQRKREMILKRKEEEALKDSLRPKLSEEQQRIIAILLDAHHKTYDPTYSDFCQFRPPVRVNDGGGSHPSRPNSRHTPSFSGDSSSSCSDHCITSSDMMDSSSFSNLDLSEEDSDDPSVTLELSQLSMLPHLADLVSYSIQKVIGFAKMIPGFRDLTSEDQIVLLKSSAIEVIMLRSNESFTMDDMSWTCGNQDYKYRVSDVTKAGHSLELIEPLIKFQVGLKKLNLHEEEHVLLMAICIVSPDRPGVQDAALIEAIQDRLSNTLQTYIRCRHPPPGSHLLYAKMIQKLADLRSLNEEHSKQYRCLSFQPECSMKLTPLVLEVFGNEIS
T1 sequence (P19793 1-462 partner): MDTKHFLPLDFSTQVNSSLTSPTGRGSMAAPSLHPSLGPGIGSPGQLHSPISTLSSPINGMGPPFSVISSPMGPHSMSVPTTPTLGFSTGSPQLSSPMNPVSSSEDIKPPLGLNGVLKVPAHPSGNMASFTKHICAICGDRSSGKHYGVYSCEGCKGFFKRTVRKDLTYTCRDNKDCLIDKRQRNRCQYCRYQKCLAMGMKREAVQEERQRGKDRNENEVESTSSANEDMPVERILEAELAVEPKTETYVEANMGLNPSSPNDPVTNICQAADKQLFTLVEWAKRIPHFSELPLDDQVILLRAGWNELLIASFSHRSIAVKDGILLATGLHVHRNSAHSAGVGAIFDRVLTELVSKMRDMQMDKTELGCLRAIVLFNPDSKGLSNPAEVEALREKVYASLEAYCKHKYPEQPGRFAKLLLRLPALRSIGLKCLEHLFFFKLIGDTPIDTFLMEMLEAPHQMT

C=C1/C(=C\C=C2/CCC[C@]3(C)[C@@H]([C@H](C)CN4CC[C@H](C(F)F)C4)CC[C@@H]23)C[C@@H](O)C[C@@H]1O [Compound B020, (1R,3S,Z)-5-(2-((1R,3aS,7aR,E)-1-((S)-1-((S)-3-(difluoromethyl)pyrrolidin-1-yl)propan-2-yl)-7a-methyloctahydro-4H-inden-4-ylidene)ethylidene)-4-methylenecyclohexane-1,3-diol]
Concentration in blood (mean ± SD) at brain Cmax [1]: 676 ± 175 nM | Concentration in brain (mean ± SD) at brain Cmax [1]: 410 ± 23 pmol/g | Kp [1]: 0.61 | Mean (number of MBP-positive cells/number of Hoechst33342-positive cells) ([2]; Test 1): 0.38 | EC50 [3]: 10 to 100 nM

C=C1/C(=C\C=C2/CCC[C@]3(C)[C@@H]([C@H](C)CN4CC[C@H](C(C)(F)F)C4)CC[C@@H]23)C[C@@H](O)[C@H](C)[C@@H]1O [Compound B029, (1R,2S,3S,Z)-5-(2-((1R,3aS,7aR,E)-1-((S)-1-((S)-3-(1,1-difluoroethyl)pyrrolidin-1-yl)propan-2-yl)-7a-methyloctahydro-4H-inden-4-ylidene)ethylidene)-2-methyl-4-methylenecyclohexane-1,3-diol]
Concentration in blood (mean ± SD) at brain Cmax [1]: 161 ± 40 nM | Concentration in brain (mean ± SD) at brain Cmax [1]: 156 ± 15 pmol/g | Kp [1]: 0.97 | Mean (number of MBP-positive cells/number of Hoechst33342-positive cells) ([2]; Test 1): 0.31 | EC50 [3]: 1 to 10 nM

C=C1/C(=C\C=C2/CCC[C@]3(C)[C@@H]([C@H](C)CN4CC[C@H](CC(F)F)C4)CC[C@@H]23)C[C@@H](O)C[C@@H]1O [Compound B036]
Concentration in blood (mean ± SD) at brain Cmax [1]: 61 ± 11 nM | Concentration in brain (mean ± SD) at brain Cmax [1]: 68 ± 36 pmol/g | Kp [1]: 1.12 | Mean (number of MBP-positive cells/number of Hoechst33342-positive cells) ([2]; Test 1): 0.59 | EC50 [3]: 10 to 100 nM

C[C@H](CN1CC[C@@H](OCC(F)F)C1)[C@H]1CC[C@H]2/C(=C/C=C3C[C@@H](O)C[C@H](O)C3)CCC[C@]12C [Compound B058, (1R,3R)-5-(2-((1R,3aS,7aR,E)-1-((S)-1-((R)-3-(2,2-difluoroethoxy)pyrrolidin-1-yl)propan-2-yl)-7a-methyloctahydro-4H-inden-4-ylidene)ethylidene)cyclohexane-1,3-diol]
Concentration in blood (mean ± SD) at brain Cmax [1]: 78 ± 15 nM | Concentration in brain (mean ± SD) at brain Cmax [1]: 67 ± 9 pmol/g | Kp [1]: 0.86 | Mean (number of MBP-positive cells/number of Hoechst33342-positive cells) ([2]; Test 2): 0.49

C[C@H](CN1CCCC[C@H]1C)[C@H]1CC[C@H]2/C(=C/C=C3C[C@@H](O)C[C@H](O)C3)CCC[C@]12C [Compound G002, (1R,3R)-5-(2-((1R,3aS,7aR,E)-7a-methyl-1-((S)-1-((R)-2-methylpiperidin-1-yl)propan-2-yl)octahydro-4H-inden-4-ylidene)ethylidene)cyclohexane-1,3-diol]
Mean (number of MBP-positive cells/number of Hoechst33342-positive cells) ([2]; Test 3): 0.33

C=C1/C(=C\C=C2/CCC[C@]3(C)[C@@H]([C@H](C)CN4CCN(C)C[C@@H]4C)CC[C@@H]23)C[C@@H](O)C[C@@H]1O [Compound F011, (1R,3S,Z)-5-(2-((1R,3aS,7aR,E)-1-((S)-1-((S)-2,4-dimethylpiperazin-1-yl)propan-2-yl)-7a-methyloctahydro-4H-inden-4-ylidene)ethylidene)-4-methylenecyclohexane-1,3-diol]
Mean (number of MBP-positive cells/number of Hoechst33342-positive cells) ([2]; Test 5): 0.26

C=C1/C(=C\C=C2/CCC[C@]3(C)[C@@H]([C@H](C)CN4CCOC[C@@H]4C)CC[C@@H]23)C[C@@H](O)C[C@H]1O [Compound I004, (1R,3R,Z)-5-(2-((1R,3aS,7aR,E)-7a-methyl-1-((S)-1-((S)-3-methylmorpholino)propan-2-yl)octahydro-4H-inden-4-ylidene)ethylidene)-4-methylenecyclohexane-1,3-diol]
Mean (number of MBP-positive cells/number of Hoechst33342-positive cells) ([2]; Test 4): 0.44

C=C1/C(=C\C=C2/CCC[C@]3(C)[C@@H]([C@H](C)CN4CCCCC4(C)C)CC[C@@H]23)C[C@@H](O)C[C@H]1O [Compound I003, (1R,3R,Z)-5-(2-((1R,3aS,7aR,E)-1-((S)-1-(2,2-dimethylpiperidin-1-yl)propan-2-yl)-7a-methyloctahydro-4H-inden-4-ylidene)ethylidene)-4-methylenecyclohexane-1,3-diol]
Mean (number of MBP-positive cells/number of Hoechst33342-positive cells) ([2]; Test 9): 0.33

C[C@H](CN1CCCC[C@@H]1C)[C@H]1CC[C@H]2/C(=C/C=C3C[C@@H](O)C[C@H](O)C3)CCC[C@]12C [Compound G001, (1R,3R)-5-(2-((1R,3aS,7aR,E)-7a-methyl-1-((S)-1-((S)-2-methylpiperidin-1-yl)propan-2-yl)octahydro-4H-inden-4-ylidene)ethylidene)cyclohexane-1,3-diol]
Mean (number of MBP-positive cells/number of Hoechst33342-positive cells) ([2]; Test 3): 0.34

C=C1[C@H](O)CC(=C/C=C2\CCC[C@]3(C)[C@@H]([C@H](C)CN4CCC[C@H]4C(C)(C)OC)CC[C@@H]23)C[C@H]1O [Compound H016, (1R,3R)-5-(2-((1R,3aS,7aR,E)-1-((S)-1-((S)-2-(2-methoxypropan-2-yl)pyrrolidin-1-yl)propan-2-yl)-7a-methyloctahydro-4H-inden-4-ylidene)ethylidene)-2-methylenecyclohexane-1,3-diol]
Mean (number of MBP-positive cells/number of Hoechst33342-positive cells) ([2]; Test 8): 0.30

C=C1/C(=C\C=C2/CCC[C@]3(C)[C@@H]([C@H](C)CN4CCCCC4(C)C)CC[C@@H]23)C[C@@H](O)C[C@@H]1O [Compound F003, (1R,3S,Z)-5-(2-((1R,3aS,7aR,E)-1-((S)-1-(2,2-dimethylpiperidin-1-yl)propan-2-yl)-7a-methyloctahydro-4H-inden-4-ylidene)ethylidene)-4-methylenecyclohexane-1,3-diol]
Mean (number of MBP-positive cells/number of Hoechst33342-positive cells) ([2]; Test 7): 0.32

C[C@H](CN1CCN(C)C[C@H]1C)[C@H]1CC[C@H]2/C(=C/C=C3C[C@@H](O)C[C@H](O)C3)CCC[C@]12C [Compound G012, (1R,3R)-5-(2-((1R,3aS,7aR,E)-1-((S)-1-((R)-2,4-dimethylpiperazin-1-yl)propan-2-yl)-7a-methyloctahydro-4H-inden-4-ylidene)ethylidene)cyclohexane-1,3-diol]
Mean (number of MBP-positive cells/number of Hoechst33342-positive cells) ([2]; Test 5): 0.22
